Laboratory results published in PubChem BioAssay AID330 (DTP/NCI, 2004).
Where “and” joins values, the source holds several entries; their conditions need not be identical. Identical values can stand only once. Inconclusive results and toxic doses are left out. The calls were made as follows: active = survival T/C of 150% or more; inactive = T/C below 125% in these data.

Tested on: P388 leukemia ip, CD2F1 mice, survival T/C
Experiment: NCI In Vivo Anticancer Drug Screen. Data for tumor model P388 Leukemia (intraperitoneal) in CD2F1 (CDF1) mice
Conditions: endpoint: median survival time, higher = longer survival
Method in brief: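 Mice carrying the transplanted tumor received test compound or vehicle. Survival was recorded in each group, and the value is the treated-group measurement divided by that of the vehicle-treated control group.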

[1] = dose: 50.0 mg/kg/injection, schedule: Q01DX005 (ip), vehicle: Klucel (hydroxypropylcellulose) (HPC)
[2] = dose: 100.0 mg/kg/injection, schedule: Q01DX005 (ip), vehicle: Klucel (hydroxypropylcellulose) (HPC)
[3] = dose: 200.0 mg/kg/injection, schedule: Q01DX005 (ip), vehicle: Klucel (hydroxypropylcellulose) (HPC)
[4] = dose: 50.0 mg/kg/injection, schedule: Q01DX005 (ip), vehicle: saline with Tween-80
[5] = dose: 100.0 mg/kg/injection, schedule: Q01DX005 (ip), vehicle: saline with Tween-80
[6] = dose: 200.0 mg/kg/injection, schedule: Q01DX005 (ip), vehicle: saline with Tween-80
[7] = dose: 50.0 mg/kg/injection, schedule: Q01DX009 (ip), vehicle: saline with Tween-80
[8] = dose: 100.0 mg/kg/injection, schedule: Q01DX009 (ip), vehicle: saline with Tween-80
[9] = dose: 60.0 mg/kg/injection, schedule: Q01DX005 (ip), vehicle: saline with Tween-80
[10] = dose: 120.0 mg/kg/injection, schedule: Q01DX005 (ip), vehicle: saline with Tween-80
[11] = dose: 50.0 mg/kg/injection, schedule: Q01DX005 (ip), vehicle: saline

Measured: T/C

O=C1C(CO)=C[C@H](O)[C@@]2(CO)O[C@@H]12
inactive: dose: 6.25 mg/kg/injection, schedule: Q04DX002 (ip), vehicle: saline 100 % of control | dose: 12.5 mg/kg/injection, schedule: Q04DX002 (ip), vehicle: saline 107 % of control | dose: 25.0 mg/kg/injection, schedule: Q04DX002 (ip), vehicle: saline 107 % of control | dose: 50.0 mg/kg/injection, schedule: Q04DX002 (ip), vehicle: saline 100 % of control | dose: 100.0 mg/kg/injection, schedule: Q04DX002 (ip), vehicle: saline 121 % of control

CS(=O)(=O)NCCNS(C)(=O)=O
inactive: dose: 100.0 mg/kg/injection, schedule: Q04DX003 (ip), vehicle: saline with Tween-80 106 % of control | dose: 200.0 mg/kg/injection, schedule: Q04DX003 (ip), vehicle: saline with Tween-80 103 % of control | dose: 400.0 mg/kg/injection, schedule: Q04DX003 (ip), vehicle: saline with Tween-80 103 % of control

O=c1[nH]c2c([N+](=O)[O-])cc(Cl)cc2nc1/C=C(\O)c1ccc(Cl)cc1
inactive: dose: 30.0 mg/kg/injection, schedule: Q01DX005 (ip), vehicle: Klucel (hydroxypropylcellulose) (HPC) 99 % of control | dose: 60.0 mg/kg/injection, schedule: Q01DX005 (ip), vehicle: Klucel (hydroxypropylcellulose) (HPC) 100 % of control | dose: 120.0 mg/kg/injection, schedule: Q01DX005 (ip), vehicle: Klucel (hydroxypropylcellulose) (HPC) 99 % of control and 108 % of control | dose: 240.0 mg/kg/injection, schedule: Q01DX005 (ip), vehicle: Klucel (hydroxypropylcellulose) (HPC) 105 % of control

c1ccc(Nc2nn[nH]n2)cc1
inactive: [1] 109 % of control | [2] 107 % of control | [3] 109 % of control

Fc1ccc2[nH]cc(C3CCCN4CCCCC34)c2c1 (configuration not stated)
inactive: dose: 12.5 mg/kg/injection, schedule: Q01DX001 (ip), vehicle: saline with Tween-80 95 % of control | dose: 25.0 mg/kg/injection, schedule: Q01DX001 (ip), vehicle: saline with Tween-80 101 % of control | dose: 50.0 mg/kg/injection, schedule: Q01DX001 (ip), vehicle: saline with Tween-80 102 % of control | dose: 100.0 mg/kg/injection, schedule: Q01DX001 (ip), vehicle: saline with Tween-80 101 % of control

CC(C)(C)/C=C/N=NNc1ccccc1C(=O)NC(C)(C)C
inactive: dose: 15.0 mg/kg/injection, schedule: Q01DX005 (ip), vehicle: Klucel + Tween-80 95 % of control | dose: 30.0 mg/kg/injection, schedule: Q01DX005 (ip), vehicle: Klucel + Tween-80 101 % of control | dose: 60.0 mg/kg/injection, schedule: Q01DX005 (ip), vehicle: Klucel + Tween-80 87 % of control and 89 % of control

S=C(Nc1ccc(I)cc1)SCc1ccc(Cl)cc1
inactive: dose: 50.0 mg/kg/injection, schedule: Q01DX009 (ip), vehicle: suspension in saline 104 % of control | dose: 100.0 mg/kg/injection, schedule: Q01DX009 (ip), vehicle: suspension in saline 111 % of control | dose: 200.0 mg/kg/injection, schedule: Q01DX009 (ip), vehicle: suspension in saline 119 % of control

O=C(O)CSC(SCC(=O)O)c1ccc(F)cc1
inactive: [4] 96 % of control | [5] 96 % of control | [6] 97 % of control

N#Cc1cc(Cl)ccc1[N+](=O)[O-]
inactive: [7] 102 % of control | [8] 103 % of control

CCNc1ncc2c(n1)N(CC)C(=O)/C(=C\C(=O)OC)N2
inactive: dose: 37.5 mg/kg/injection, schedule: Q01DX009 (ip), vehicle: saline with Tween-80 94 % of control | dose: 150.0 mg/kg/injection, schedule: Q01DX009 (ip), vehicle: saline with Tween-80 93 % of control

Cc1ccc(S(=O)(=O)N=S(C)(C)=O)cc1
inactive: dose: 0.1 mg/kg/injection, schedule: Q01DX009 (ip), vehicle: saline with Tween-80 104 % of control | dose: 0.2 mg/kg/injection, schedule: Q01DX009 (ip), vehicle: saline with Tween-80 105 % of control and 108 % of control | dose: 0.39 mg/kg/injection, schedule: Q01DX009 (ip), vehicle: saline with Tween-80 99 % of control and 101 % of control | dose: 0.78 mg/kg/injection, schedule: Q01DX009 (ip), vehicle: saline with Tween-80 107 % of control | dose: 0.79 mg/kg/injection, schedule: Q01DX009 (ip), vehicle: saline with Tween-80 98 % of control | dose: 1.56 mg/kg/injection, schedule: Q01DX009 (ip), vehicle: saline with Tween-80 108 % of control and 120 % of control and 96 % of control | dose: 6.25 mg/kg/injection, schedule: Q01DX009 (ip), vehicle: saline with Tween-80 100 % of control and 105 % of control and 91 % of control | dose: 12.5 mg/kg/injection, schedule: Q01DX009 (ip), vehicle: saline with Tween-80 104 % of control and 88 % of control | dose: 25.0 mg/kg/injection, schedule: Q01DX009 (ip), vehicle: saline with Tween-80 97 % of control

CCCC(NC(=O)C(F)(F)F)C(=O)O (configuration not stated)
inactive: [7] 91 % of control | [8] 93 % of control | dose: 200.0 mg/kg/injection, schedule: Q01DX009 (ip), vehicle: saline with Tween-80 106 % of control

BrC/C(=N\N=C(/CBr)c1ccccc1)c1ccccc1
inactive: dose: 50.0 mg/kg/injection, schedule: Q01DX009 (ip), vehicle: Klucel (hydroxypropylcellulose) (HPC) 103 % of control | dose: 100.0 mg/kg/injection, schedule: Q01DX009 (ip), vehicle: Klucel (hydroxypropylcellulose) (HPC) 112 % of control | dose: 200.0 mg/kg/injection, schedule: Q01DX009 (ip), vehicle: Klucel (hydroxypropylcellulose) (HPC) 96 % of control

CCOC(=O)C1Cc2c([nH]c(=O)[nH]c2=O)OC1c1ccc(OC)cc1 (configuration not stated)
inactive: [1] 97 % of control | [2] 100 % of control | [3] 97 % of control

COC(=O)c1nnn(-c2cccc(Cl)c2)c1C(=O)c1ccc(Cl)c(Cl)c1
inactive: [9] 100 % of control | [10] 87 % of control | dose: 240.0 mg/kg/injection, schedule: Q01DX005 (ip), vehicle: saline with Tween-80 88 % of control

CC(CN(C)C)C(=O)/C=C/c1ccc(F)cc1 (configuration not stated)
inactive: dose: 30.0 mg/kg/injection, schedule: Q01DX005 (ip), vehicle: saline 100 % of control | dose: 60.0 mg/kg/injection, schedule: Q01DX005 (ip), vehicle: saline 101 % of control and 110 % of control

O=S(=O)(Cl)C(Cl)(Cl)Cl
inactive: dose: 25.0 mg/kg/injection, schedule: Q01DX009 (ip), vehicle: saline sonified 95 % of control | dose: 50.0 mg/kg/injection, schedule: Q01DX009 (ip), vehicle: saline sonified 100 % of control | dose: 100.0 mg/kg/injection, schedule: Q01DX009 (ip), vehicle: saline sonified 86 % of control

COc1ccc2c(c1)C(CCN(C)C)(CCN(C)C)C(=O)CC2
inactive: dose: 12.5 mg/kg/injection, schedule: Q01DX005 (ip), vehicle: saline 94 % of control | dose: 25.0 mg/kg/injection, schedule: Q01DX005 (ip), vehicle: saline 95 % of control | [11] 104 % of control and 94 % of control

N/N=C/c1cccn1-c1ccccc1Cl
inactive: [9] 93 % of control | [10] 92 % of control

NCCCNc1cc(O)cc2cccnc12
inactive: [11] 93 % of control | dose: 100.0 mg/kg/injection, schedule: Q01DX005 (ip), vehicle: saline 95 % of control

CC(CN(C)C)Nc1c2ccccc2nc2cccc([N+](=O)[O-])c12 (configuration not stated)
inactive: dose: 0.04 mg/kg/injection, schedule: Q01DX009 (ip), vehicle: saline 87 % of control | dose: 0.09 mg/kg/injection, schedule: Q01DX009 (ip), vehicle: saline 101 % of control | dose: 0.19 mg/kg/injection, schedule: Q01DX009 (ip), vehicle: saline 102 % of control and 113 % of control | dose: 0.39 mg/kg/injection, schedule: Q01DX009 (ip), vehicle: saline 109 % of control

O=[N+]([O-])c1ccc(Nc2ccc(Cl)cc2)c2nonc12
inactive: [4] 100 % of control | [5] 103 % of control | [6] 97 % of control
